Results: the supplement of paper PMC8882468

How the values were obtained:
Experiment in all cases: CTG-3D luminescence at 96 h relative to day-0 seeding control (ratio to day 0); higher = more growth / less cytotoxicity; PDxO 3D drug screen, 96 h, CTG-3D normalised to day-0 seeding control.
HCI-003.E2 = tested on: HCI-003.E2 (organoid from an ER-positive breast cancer xenograft)
HCI-005.E2 = tested on: HCI-005.E2 (organoid from a breast cancer xenograft with a HER2-positive history)
HCI-011.E2 = tested on: HCI-011.E2 (organoid from an ER-positive breast cancer xenograft)
HCI-016 = tested on: HCI-016 (organoid from a triple-negative breast cancer xenograft)
HCI-019 = tested on: HCI-019 (organoid from a triple-negative breast cancer xenograft)
HCI-025 = tested on: HCI-025 (organoid from a breast cancer xenograft)

Cc1nc(-c2cn3c(n2)-c2ccc(-c4cnn(C(C)(C)C(N)=O)c4)cc2OCC3)n(C(C)C)n1 [taselisib]
CTG-3D luminescence at 96 h
Settings | 12.5 pM | 0.00025 µM | 0.005 µM | 0.1 µM | 1 µM | 10 µM | 100 µM | 625 fM
HCI-003.E2 | 2.19 | 2.28 | 1.77 | 0.633 | 0.183 | 0.0364 | 0.0189 | 2.14
HCI-005.E2 | 1.52 | 1.77 | 1.52 | 1.21 | 0.401 | 0.348 | 0.34 | 2.12
HCI-011.E2 | 1.44 | 1.59 | 1.07 | 0.776 | 0.369 | 0.212 | 0.527 | 1.51

CTG-3D luminescence at 96 h
Settings | 12.5 pM | 0.00025 µM | 0.005 µM | 0.1 µM | 1 µM | 10 µM | 100 µM | 625 fM
HCI-011.E2, days in culture: 74 | 2.48 | 2.64 | 1.33 | 0.778 | 0.432 | 0.326 | 0.711 | 2.81
HCI-016, days in culture: 153 | 3 | 1.97 | 2.05 | 1.75 | 1.93 | 1.68 | 1.08 | 2.05
HCI-016, days in culture: 172 | 2.1 | 1.26 | 1.83 | 1.06 | 1.32 | 0.704 | 0.881 | 1.53
HCI-016, days in culture: 190 | 1.8 | 1.3 | 1.49 | 1.25 | 1.07 | 0.971 | 0.254 | 1.2
HCI-016, days in culture: 199 | 1.68 | 1.68 | 1.69 | 1.49 | 1.48 | 0.98 | 0.362 | 1.95
HCI-019, days in culture: 110 | 1.23 | 1.32 | 1.4 | 1.45 | 0.521 | 0.496 | 0.105 | 2.64
HCI-019, days in culture: 131 | 2.82 | 3.38 | 3.03 | 1.62 | 1.23 | 0.571 | 0.133 | 4.04
HCI-019, days in culture: 152 | 3.26 | 2.42 | 2.02 | 1.86 | 1.08 | 0.381 | 0.116 | 2.51
HCI-025, days in culture: 172 | 3.15 | 1.96 | 3.8 | 1.36 | 0.93 | 0.235 | 0.0865 | 1.92
HCI-025, days in culture: 209 | 1.6 | 2.39 | 1.79 | 1.16 | 0.455 | 0.267 | 0.0164 | 1.64
HCI-025, days in culture: 218 | 1.42 | 1.87 | 1.83 | 0.886 | 0.193 | 0.296 | 0.0322 | 1.54

Cc1cc(Nc2ncnc3ccc(NC4=NC(C)(C)CO4)cc23)ccc1Oc1ccn2ncnc2c1 [tucatinib]
CTG-3D luminescence at 96 h
Settings | 12.5 pM | 0.00025 µM | 0.005 µM | 0.1 µM | 1 µM | 10 µM | 100 µM | 625 fM
HCI-003.E2 | 2.15 | 2.41 | 2.02 | 2.29 | 1.93 | 1.31 | 0.018 | 2.12
HCI-005.E2 | 1.56 | 1.61 | 2.08 | 2 | 1.47 | 1.53 | 0.00612 | 2.09
HCI-011.E2 | 1.7 | 1.59 | 1.4 | 1.87 | 1.52 | 1.91 | 0.142 | 1.5

CTG-3D luminescence at 96 h
Settings | 12.5 pM | 0.00025 µM | 0.005 µM | 0.1 µM | 1 µM | 10 µM | 100 µM | 625 fM
HCI-011.E2, days in culture: 74 | 2.22 | 2.98 | 1.74 | 2.19 | 2.18 | 3 | 0.399 | 2.84
HCI-016, days in culture: 153 | 2.94 | 1.99 | 2.31 | 1.49 | 2.19 | 1.96 | 0.013 | 1.94
HCI-016, days in culture: 172 | 2.3 | 2.27 | 1.67 | 1.43 | 1.54 | 0.81 | 0.0152 | 1.3
HCI-016, days in culture: 190 | 1.7 | 1.19 | 1.48 | 1.54 | 1.57 | 1.45 | 0.0124 | 1.1
HCI-016, days in culture: 199 | 1.77 | 1.74 | 1.65 | 1.66 | 1.78 | 1.38 | 0.019 | 1.83
HCI-019, days in culture: 110 | 2.14 | 1.65 | 1.28 | 1.81 | 1.13 | 2.33 | 0.029 | 2.47
HCI-019, days in culture: 131 | 2.25 | 3.22 | 3.6 | 3.65 | 2.9 | 3.09 | 0.0325 | 4.09
HCI-019, days in culture: 152 | 3.48 | 3.89 | 3.04 | 1.67 | 1.99 | 2.26 | 0.0487 | 2
HCI-025, days in culture: 172 | 3 | 1.87 | 3.97 | 2.2 | 2.35 | 1.75 | 0.0232 | 2.16
HCI-025, days in culture: 209 | 1.95 | 2.11 | 2.45 | 1.5 | 1.95 | 1.9 | 0.0118 | 1.06
HCI-025, days in culture: 218 | 1.26 | 1.91 | 1.79 | 1.43 | 1.02 | 1.62 | 0.249 | 1.71
